B1: Gαolf: wild type G protein α subunit Gαolf (mouse), SEQ ID NO: 2 (protein, listed as Mus musculus)
chain: MGCLGNSSKTAEDQGVDEKERREANKKIEKQLQKERLAYKATHRLLLLGAGESGKSTIVKQMRILHVNGFNPEEKKQKILDIRKNVKDAIVTIVSAMSTIIPPVPLANPENQFRSDYIKSIAPITDFEYSQEFFDHVKKLWDDEGVKACFERSNEYQLIDCAQYFLERIDSVSLVDYTPTDQDLLRCRVLTSGIFETRFQVDKVNFHMFDVGGQRDERRKWIQCFNDVTAIIYVAACSSYNMVIREDNNTNRLRESLDLFESIWNNRWLRTISIILFLNKQDMLAEKVLAGKSKIEDYFPEYANYTVPEDATPDAGEDPKVTRAKFFIRDLFLRISTATGDGKHYCYPHFTCAVDTENIRRVFNDCRDIIQRMHLKQYELL
modifications: (1)..(381) bulbus olfactorius of mouse

Columns and labels:
[1] = target: T1, β1 adrenergic receptor (Rattus norvegicus, UniProt P18090); assay: Patch-clamp agonist concentration dependence in Gi/olf94 chimeric G protein expressing cells (present invention); assay type: cell-based; conditions: for Change Level in Current Density (relative value): Table 14, 100 = 30000 nM dopamine, 100 nM dobutamine, 30 nM ISO
T1 construct: expressed in transfected cells; host or cells: HEK293T
Procedure: Membrane current of the chimeric G protein expressing cell was measured by using a patch-clamp technique. […] Procedure for the measurements is shown below.
Measurement operations were conducted under a microscope (“1X71” manufactured by Olympus, Inc.). A liquid circulation chamber was mounted on the silver/silver chloride (Ag/AgCl) electrode. A sample for measurement was placed in the liquid circulation chamber filled with Tyroad's buffer. At a state where a single cell was in contact with the tip of a glass electrode, negative pressure was applied in the glass electrode. The portion of a cell membrane in contact with the tip of the glass electrode was torn to form an equivalent circuit (Whole-cell mode). The electric potential difference between inside and outside a cell was kept at 0 mV by using a patch clamp amplifier (“EPC10” manufactured by HEKA Instrument Inc.). Under this mode, the Tyroad's buffer in the liquid circulation chamber was substituted with a GIRK buffer.
The GIRK buffer in the liquid circulation chamber was substituted with a sample solution.
Chemical substance detection sensitivity according to the present invention was compared to detection sensitivity of cAMP technique, which is a commonly used chemical substance detection technique. The cAMP technique is a technique for measuring an increase in cAMP concentration in an intracellular fluid caused by an interaction between an agonist and a receptor, and quantifying the concentration of the agonist based on the measured value. More particularly, cells expressing β1 adrenergic receptor and potassium ion channel Kir3.1 (F137S) were placed in contact with a buffer solution containing ISO, and then were homogenized. The concentration of cAMP contained in the obtained homogenate liquid was measured. The concentration measurement was performed by using a measurement kit (cyclic AMP EIA kit; Assay Designs, Inc.). The kit measures cAMP concentration by utilizing competitive EIA (competitive enzyme immunoassay). A cAMP concentration obtained when the ISO concentration inside of a buffer solution was 1000 nM was represented as 100 as a standard, and cAMP concentrations at respective ISO concentrations were calculated as ratios with regard to this standard cAMP concentration. […] A change value in current density obtained when the ISO concentration was 30 nM was represented as 100 as a standard, and change values in current density at respective ISO concentrations were calculated as ratios with regard to the standard change value.

[2] = test system: β1 adrenergic receptor / potassium ion channel Kir3.1 (F137S) in HEK293T cells; assay: Patch-clamp membrane current of G protein expressing HEK293T cells with and without ISO; assay type: cell-based, rat (receptor), mouse (Kir3.1)
Procedure: A cell was obtained that expressed a chimeric G protein, a potassium ion channel, and a chemical substance receptor (hereinafter, the cell is referred to as “chimeric G protein expressing cell”). An electrophysiological activity of the chimeric G protein expressing cell was measured by using patch-clamp method. The chimeric G protein expressing cell was prepared in accordance with the following procedure. First, a chimeric G protein expression plasmid, a potassium ion channel expression plasmid, and a chemical substance receptor expression plasmid were prepared. Next, the three expression plasmids were transfected into HEK293T cells, and were then expressed inside the cells.
A chimeric G protein comprising Gi/olf13 as a chimeric Gα subunit was employed. The mutated potassium ion channel Kir3.1 (F137S) was employed as a potassium ion channel. The β1 adrenergic receptor was employed as a chemical substance receptor.
The plasmid (βAR), the plasmid Kir3.1 (F137S), and the plasmid (Gi/olf13) were expressed in HEK293T cells. The procedure for the expression is shown below. Approximately 80% confluent cultured HEK293T cells were collected, and plated on a new culture petri dish. The passage number of the used cells was not more than ten generations. DMEM (supplemented with 10% FBS (fetal bovine serum) and streptomycin) was used. After culturing the cells for 24 hours, the cells were transfected with the plasmids by using a transfection reagent. The cells were cultured for 48 hours after being transfected with the plasmids, and thereby chimeric G protein expressing cells were prepared.
Membrane current of the chimeric G protein expressing cell was measured by using a patch-clamp technique. Measurements were conducted with and without supplying isoproterenol (hereinafter, referred to as “ISO”) which was a β1 adrenergic receptor agonist. Procedure for the measurements is shown below.
The chimeric G protein expressing cells were plated on coverslips (3 mm×10 mm; Matsunami Glass Ind., Ltd.,) treated with PLL (poly-L-lysine) and kept still for four hours to obtain samples for the measurements.
Procedure for preparing glass electrodes used for the measurements is described below. […]
Measurement operations were conducted under a microscope (“1X71” manufactured by Olympus, Inc.). […] Pulse potentials (electric potential: −50 mV; duration time: 100 mS) were applied every 10 seconds, and membrane currents obtained upon the application were measured.
Next, membrane currents obtained when isoproterenol (hereinafter, abbreviated as “ISO”) which is a β1 adrenergic receptor agonist was brought into contact with the cell were measured in accordance with the following procedure. […]

T1 sequence (P18090 whole entry): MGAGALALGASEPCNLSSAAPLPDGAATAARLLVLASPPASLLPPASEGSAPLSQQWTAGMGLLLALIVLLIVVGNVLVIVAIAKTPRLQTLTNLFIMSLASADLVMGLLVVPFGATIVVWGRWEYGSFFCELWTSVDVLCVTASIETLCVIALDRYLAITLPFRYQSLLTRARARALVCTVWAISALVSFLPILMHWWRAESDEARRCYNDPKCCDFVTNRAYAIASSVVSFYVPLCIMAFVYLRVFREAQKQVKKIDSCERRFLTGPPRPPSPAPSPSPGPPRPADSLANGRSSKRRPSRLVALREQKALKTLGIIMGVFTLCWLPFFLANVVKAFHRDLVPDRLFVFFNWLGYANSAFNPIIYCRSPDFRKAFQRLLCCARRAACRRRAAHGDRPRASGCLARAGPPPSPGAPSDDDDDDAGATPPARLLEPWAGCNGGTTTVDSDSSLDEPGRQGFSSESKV

Molecule | Change Level in Current Density (relative value) ([1]; agonist 0.3 nM) | Change Level in Current Density (relative value) ([1]; agonist 3 nM) | Change Level in Current Density (relative value) ([1]; agonist 30 nM) | Change Level in Current Density (relative value) ([1]; agonist 300 nM) | Change Level in Current Density (relative value) ([1]; agonist 3000 nM) | EC50 ([1]; change in current density, Gi/olf94 cells, read-out: half maximal effective concentration (EC50)) [nM] | change level of current caused by addition of ISO ([2]; Reference Example) | current value when ISO was supplied ([2]; Reference Example, FIG. 26-28, with ISO) | Change Level in Current Density ([2]; Table 11, difference of current density without vs with ISO 30 nM, pulse −50 mV, β1 adrenergic receptor + Kir3.1 (F137S) co-expressed) [pA/pF] | Current Change Level ([2]; Table 15, Reference Example, change on contact with ISO) [nA]
CC(CCc1ccc(O)cc1)NCCc1ccc(O)c(O)c1 (stereo not shown) [dobutamine] | 0.67 | 6.80 | 20.59 | 99.15 | 100 | 50 |  |  |  | 
B1 |  |  |  |  |  |  | small | approximately 0.5 nA | −22.59 | −0.37

Reference: patent publication US8202687B2, “Method for transporting potassium ions from front side to back side of lipid bilayer membrane” (Panasonic Corporation, priority 2010, dated 2012)
